Assays:
EndoC-βH1 Cell Line = assay: GSIS assay in EndoC-βH1 cell line; format: cell-based
Method: (§1) INS-1E, rat pancreatic tumor (insulinoma) cells were used in the GSIS assay. INS-1E cells were thawed and incubated in culture medium (CM) (RPMI 1640+Glucose q.s., HEPES 25 mM, Na-Pyruvat 1 mM, 2-Mercaptoethanol 50 μM, Fetal Calf Serum; heat inactivated (FCS) 10%, Penicillin/Streptomycin 100 U/ml) at 37° C.; 5% CO2 in a humidified atmosphere. 96 welled plates are coated with Matrigel by incubating the plates with 1 ml pre-diluted 1:10 with cold basal medium with 100 μl/well at 37° C. for 1 hour. Matrigel is then removed and replaced with 100 μl CM. Cells are then seeded into the wells as 70 000 cells/well. CM is refreshed with 200 μl fresh CM on the third day. CM is refreshed again with 200 μl fresh CM on the sixth day. GSIS assay is performed on the seventh day and cells in wells are washed with PKrebs®BSA and incubated with 100 μL/well for 2 h. Secretion plates are placed in an incubator at 37° C., 5% C02 and saturated humidity for 60 min. Meanwhile, lysis solution is prepared by adding 1 tablet of protease inhibitor/10 mL TETG solution and kept at 4° C. until the end of the experiment. The other incubation buffers are prepared without adding pharmacological compounds, aliquoted and then placed in a water bath at 37° C. The samples are prepared including negative (βKrebs®B0=0 mM Glucose) and positive controls (PKrebs®B20=20 mM Glucose) and each compound to be tested is diluted in DMSO as having a series of final concentration including 10.00, 4.00, 1.60, 0.64, 0.26, 0.10, 0.04, 0.02 μM.
(§2) After 2 hours of starvation, glucose stimulation and treatments are initiated. KRB Buffer from cells is removed by pipetting. The solutions are homogenized and the cells are treated with 90 µL/well. 10 μl from 10-fold compound dilution is added to the assay plate (final 100 μl/well) according to the following layout for each compound to be tested.
(§3) Incubation time is 40 minutes. Plates are placed in an incubator at 37° C., 5% CO2 and saturated humidity. After incubation, 80 μL of supernatants are collected without disrupting the cell layer and stored at 4° C. or on ice until centrifugation. Remaining medium are removed from each well and 100 μL/well of cold lysis solution is added and incubated for minimum 2 minutes at room temperature. Cell lysis is observed under microscope and waited for maximum for 5 more minutes until the lysis is complete. Cell lysates are collected and all samples including supernatants are centrifuged at 700×g, 5 min at 4° C. 30 μL of each samples are transferred into aliquots for ELISA. ELISA is performed with HTRF Assay Kit comprising an insulin high range kit supplied by Cisbio/Perkin Elmer. 5 μl of each Insulin standard and 5 μl of either supernatant or lysate are transferred on HTRF plate. 40 μl/well of Anti-insulin—XL665 and 20 μl/well of Anti-insulin—EU are added to each well and the plate is read on HTRF compatible reader (fluorescence 620 nm & 665 nm).
GSIS experiments were also performed in other cell lines, e.g., EndoC-βH1, a canonical cell line for screening new therapeutic compounds.

INS-1E cells = assay: Glucose stimulated insulin secretion assay (GSIS) in INS-1E cells; format: cell-based, rat; conditions: for IC50 / inhibition at 10 µM: Rattus norvegicus; for inhibition at 10 µM: INS-1E cells
Method: as §1, §2, §3

| Compound | IC50 (EndoC-βH1 Cell Line) | IC50 (INS-1E cells; INS-1E cell line) | inhibition at 10 µM (INS-1E cells) | % inhibition of Insulin (Average Inhibition (%)) (INS-1E cells; INS-1E cell line, average inhibition) |
| --- | --- | --- | --- | --- |
| O=S1(=O)N=C(NC23CC(C2)C3)Nc2ccc(F)cc21 [Compound 1, 3-(bicyclo[1.1.1]pentan-1-ylamino)-7-fluoro-4H-benzo[e][1,2,4] thiadiazine 1,1-dioxide] | < 500 nM | 500 to 1000 nM | ≥ 50% |  |
| O=S1(=O)N=C(NC23CC(F)(C2)C3)Nc2cc(Cl)c(F)cc21 [Compound 19, 6-chloro-7-fluoro-3-((3-fluorobicyclo[1.1.1]pentan-1-yl)amino)-4H-benzo[e][1,2,4]thiadiazine 1,1-dioxide] | ≥ 2000 nM |  |  | C (C is equal to 10-25% inhibition) |
| O=S1(=O)N=C(NC2CC23CCC3)Nc2cc(Cl)c(F)cc21 (stereo not shown) [Compound 15, 6-chloro-7-fluoro-3-(spiro[2.3]hexan-1-ylamino)-4H-benzo[e][1,2,4]thiadiazine 1,1-dioxide] | < 500 nM | < 500 nM |  |  |
| O=S1(=O)N=C(NC23CC(C2)C3)Nc2cc(Cl)c(F)cc21 [Compound 14, 3-(bicyclo[1.1.1]pentan-1-ylamino)-6-chloro-7-fluoro-4H-benzo[e][1,2,4] thiadiazine 1,1-dioxide] | < 500 nM | < 500 nM | ≥ 50% |  |
